Patent US6004938A, “Inositolglycans having insulin-like action” (Hoescht Aktiengesellschaft, priority 1996, dated 1999)

Tests used:
rat fat cells [1] = assay: Lipogenesis in isolated rat fat cells (insulin-like activity); format: cell-based, rat (Wistar); conditions: 1.5 h; for EC50: read-out: Lipogenesis EC50; for Emax: read-out: Lipogenesis % Insmax
Method: (§1) This example provides exemplary methods for determining insulin-like activity. The biological activity of the compounds of the formula I according to the invention is determined with the aid of isolated fat cells from the rat.
(§2) The preparation of fat cells from the rat was carried out as follows: White fatty tissue of the epididymis (Wistar rat, 160-180 g, no food restriction) is digested with collagenase and the resulting isolated fat cells are separated off by means of filtration of undigested tissue and washed by flotation several times using Krebs-Ringer-Henseleit buffer (KRH buffer).
This test determines the insulin-stimulable conversion of glucose into toluene-soluble products (triglycerides, phospholipids, fatty acids), which promotes glucose transport and triglyceride (glycerol-3-P synthesis, esterification)/phospholipid/fatty acid synthesis including the insulin signal transmission cascade. At a glucose concentration of 2.5 mM in the test, the esterification (and not the glycerol-3-P synthesis including glucose transport) is rate-determining for the stimulation of lipogenesis.
200 μl (3×10^5 cells/ml) of rat fat cells in KRH buffer are incubated at 37° C. for 90 min with 100 μl of D-[3-^3 H] glucose (25 mM, 0.4 μCi) in the presence or absence of insulin (10 ng/ml) or compound of the formula I according to the invention (final volume 1 ml). By addition of a toluene-soluble scintillation cocktail (10 ml), the cells are disrupted and the lipids are separated off from water-soluble products and the incubation medium. After phase separation, the radioactivity incorporated in lipid products is determined directly without removal of the aqueous phase by scintillation measurement ([^3 H]lipid [dpm×10^-3 ]). A control value (incubation under identical conditions but without cells) is subtracted from this radioactivity. The lipogenesis rate is linear up to 120 min. The maximum stimulation factor--this is the ratio of the incubation result with insulin to the incubation results without insulin--is set at 100%. The percentage data under "%Insmax " are parts of the maximum stimulation factor defined in this way. The term EC50 indicates the concentration of the compound of the formula I at which 50% of the maximum stimulation to be achieved by the respective compound of the formula I is to be observed.

rat fat cells [2] = assay: Glucose transport in isolated rat fat cells (insulin-like activity); format: cell-based, rat (Wistar); conditions: for Emax: 0.25 h, read-out: Glucose transport % Insmax; for EC50: read-out: Glucose transport EC50
Method: as §1, §2
[…] After addition of 15 μl of 2-[^3 H]-deoxyglucose (0.3 mM, 0.2 μCi), the incubation is continued at room temperature. After specified times (0-20 min), 100 μl of the test batch are removed and transferred to a reaction vessel (contents 400 μl), in which 250 μl of dinonyl phthalate have been initially introduced. After centrifugation (15,000×g, 1 min), the cells are separated off from the oily layer of the incubation medium underneath the oily layer by cutting the tube at the level of the oily layer and transferring to a scintillation vessel. After addition of 5 ml of water-soluble scintillation fluid, the radioactivity is determined. This total cell-associated radioactivity is corrected for [^3 H]-deoxyglucose which has passively diffused into the cells and is included in the cell interstices by subtraction of a control value (incubation in the presence of the glucose transport inhibitor cytochalasin B). The initial (stimulated) glucose transport rate is linear up to 15 min. The maximum stimulation factor--this is the ratio of the incubation result with insulin to the incubation result without insulin--is set at 100%.
The terms "%Insmax " and "EC50 " are as defined under A) lipogenesis.

[3] = concentration at 50% of the maximum stimulation achieved by the respective compound, rat fat cells, 90 min, 37° C.
[4] = part of maximum stimulation factor of insulin (set at 100%), rat fat cells, 90 min, 37° C., D-[3-3H]glucose
[5] = part of maximum stimulation factor of insulin (set at 100%), rat fat cells, 15 min, 37° C., 2-[3H]-deoxyglucose
[6] = concentration at 50% of the maximum stimulation achieved by the respective compound, rat fat cells, 2-[3H]-deoxyglucose

## N[C@H]1[C@H](O[C@H]2[C@H](O)[C@@H](O)[C@H](O)[C@@H]3OP(=O)(O)O[C@H]23)O[C@H](CO)[C@@H](O[C@H]2O[C@H](CO[C@H]3O[C@H](CO)[C@@H](O)[C@H](O)[C@@H]3O[C@H]3O[C@H](CO[PH](=O)O)[C@@H](O)[C@H](O)[C@@H]3O[C@H]3O[C@H](CO)[C@@H](O)[C@H](O)[C@@H]3O)[C@@H](O)[C@H](O)[C@@H]2O)[C@@H]1O [A, HO-PO(H)O-6Manα1(Manα1-2)-2Manα1-6Manα1-4GluNβ1-6(L)inositol-1,2-(cyclic)-phosphate]
Rat fat cells [1]; [3]
  EC50: 7 µM
Rat fat cells [1]; [4]
  Emax: 59%
Rat fat cells [2]; [5]
  Emax: 28%
Rat fat cells [2]; [6]
  EC50: 8 µM

## N[C@H]1[C@H](O[C@@H]2[C@@H](O)[C@H](O)[C@@H](O)[C@H]3OP(=O)(O)O[C@H]32)O[C@H](CO)[C@@H](O[C@H]2O[C@H](CO[C@H]3O[C@H](CO)[C@@H](O)[C@H](O)[C@@H]3O[C@H]3O[C@H](CO[PH](=O)O)[C@@H](O)[C@H](O)[C@@H]3O[C@H]3O[C@H](CO)[C@@H](O)[C@H](O)[C@@H]3O)[C@@H](O)[C@H](O)[C@@H]2O)[C@@H]1O [B, HO-PO(H)O-6Manα1(Manα1-2)-2Manα1-6Manα1-4GluNβ1-6(D)inositol-1,2-(cyclic)-phosphate]
Rat fat cells [1]; [3]
  EC50: 8.2 µM
Rat fat cells [1]; [4]
  Emax: 77%
Rat fat cells [2]; [5]
  Emax: 41%
Rat fat cells [2]; [6]
  EC50: 8.1 µM

## N[C@H]1[C@H](O[C@@H]2[C@@H](O)[C@H](O)[C@@H](O)[C@H]3OP(O)(=S)O[C@H]32)O[C@H](CO)[C@@H](O[C@H]2O[C@H](CO[C@H]3O[C@H](CO)[C@@H](O)[C@H](O)[C@@H]3O[C@H]3O[C@H](CO[PH](=O)O)[C@@H](O)[C@H](O)[C@@H]3O[C@H]3O[C@H](CO)[C@@H](O)[C@H](O)[C@@H]3O)[C@@H](O)[C@H](O)[C@@H]2O)[C@@H]1O (stereo partly drawn) [C, HO-PO(H)O-6Manα1(Manα1-2)-2Manα1-6Manα1-4GluNβ1-6(D)inositol-1,2-(cyclic)-thiophosphate]
Rat fat cells [1]; Rattus norvegicus
  Emax: 64%
  EC50: 7 µM
Rat fat cells [2]; Rattus norvegicus
  Emax: 29%
  EC50: 10 µM

## N[C@H]1[C@H](O[C@H]2[C@H](O)[C@@H](O)[C@H](OP(=O)(O)O)[C@H](O)[C@@H]2O)O[C@H](CO)[C@@H](O)[C@@H]1O[C@H]1O[C@H](CO[C@H]2O[C@H](CO)[C@@H](O)[C@H](O)[C@@H]2O[C@H]2O[C@H](CO[PH](=O)O)[C@@H](O)[C@H](O)[C@@H]2O[C@H]2O[C@H](CO)[C@@H](O)[C@H](O)[C@@H]2O)[C@@H](O)[C@H](O)[C@@H]1O [D, HO-PO(H)O-6Manα1(Manα1-2)-2Manα1-6Manα1-3GluNβ1-6(L)inositol-3-phosphate]
Rat fat cells [1]; [3]
  EC50: 20 µM
Rat fat cells [1]; [4]
  Emax: 33%
Rat fat cells [2]; [5]
  Emax: 18%
Rat fat cells [2]; [6]
  EC50: 18 µM

## NCCOP(=O)(O)OC[C@H]1O[C@H](OC[C@H]2O[C@H](O[C@H]3[C@H](O)[C@@H](N)[C@H](O[C@@H]4[C@@H](O)[C@H](O)[C@@H](O)[C@H]5OP(=O)(O)O[C@H]54)O[C@@H]3CO)[C@@H](OP(=O)(O)OCCN)[C@@H](O)[C@@H]2O)[C@@H](O[C@H]2O[C@H](CO[PH](=O)O)[C@@H](O)[C@H](O)[C@@H]2O[C@H]2O[C@H](CO)[C@@H](O)[C@H](O)[C@@H]2O)[C@@H](O)[C@@H]1O [E, HO-PO(H)O-6Manα1(Manα1-2)-2Manα1(6-EtNP)-6Manα1(2-EtNP)-4GluNβ1-6(D)inositol-1,2-(cyclic)-phosphate]
Rat fat cells [1]; [3]
  EC50: 60 µM
Rat fat cells [1]; [4]
  Emax: 48%
Rat fat cells [2]; [5]
  Emax: 34%
Rat fat cells [2]; [6]
  EC50: 30 µM

## N[C@H]1[C@@H](O[C@H]2[C@H](O)[C@@H](O)[C@H](O)[C@@H]3OP(=O)(O)O[C@H]23)O[C@H](CO)[C@@H](O[C@H]2O[C@H](CO[PH](=O)O)[C@@H](O)[C@H](O)[C@@H]2O)[C@@H]1O [G, HO-PO(H)O-6Manα1-4GluNα1-6(L)inositol-1,2-(cyclic)-phosphate]
Rat fat cells [1]; [3]
  EC50: 15 µM
Rat fat cells [1]; [4]
  Emax: 25%
Rat fat cells [2]; [5]
  Emax: 9%
Rat fat cells [2]; [6]
  EC50: 15 µM

## N[C@H]1[C@@H](O[C@H]2[C@H](O)[C@@H](O)[C@H](O)[C@H](O)[C@@H]2O)O[C@H](CO)[C@@H](O[C@H]2O[C@H](CO[PH](=O)O)[C@@H](O)[C@H](O)[C@@H]2O)[C@@H]1O [H, HO-PO(H)O-6Manα1-4GluNα1-6(L)inositol]
Rat fat cells [1]; [3]
  EC50: 25 µM
Rat fat cells [1]; [4]
  Emax: 15%
Rat fat cells [2]; [5]
  Emax: 2%
Rat fat cells [2]; [6]
  EC50: 10 µM

## N[C@H]1[C@H](O[C@@H]2[C@@H](O)[C@H](O)[C@@H](O)[C@H]3OP(=O)(O)O[C@H]32)O[C@H](CO)[C@@H](O[C@H]2O[C@H](CO[C@H]3O[C@H](CO[PH](=O)O)[C@@H](O)[C@H](O)[C@@H]3O[C@H]3O[C@H](CO[PH](=O)O)[C@@H](O)[C@H](O)[C@@H]3O[C@H]3O[C@H](CO)[C@@H](O)[C@H](O)[C@@H]3O)[C@@H](O)[C@H](O)[C@@H]2O)[C@@H]1O [M, HO-PO(H)O-6Manα1(Manα1-2)-2Manα1(6-PO(H)OH)-6Manα1-4GluNβ1-6(D)-inositol-1,2-(cyclic)-phosphate]
Rat fat cells [1]; [3]
  EC50: 7 µM
Rat fat cells [1]; [4]
  Emax: 90%
Rat fat cells [2]; [5]
  Emax: 39%
Rat fat cells [2]; [6]
  EC50: 6 µM

## N[C@H]1[C@H](O[C@@H]2[C@@H](O)[C@H](O)[C@@H](O)[C@H]3OP(=O)(O)O[C@H]32)O[C@H](CO)[C@@H](O[C@H]2O[C@H](CO[C@H]3O[C@H](COS(=O)(=O)O)[C@@H](O)[C@H](O)[C@@H]3O[C@H]3O[C@H](COS(=O)(=O)O)[C@@H](O)[C@H](O)[C@@H]3O[C@H]3O[C@H](CO)[C@@H](O)[C@H](O)[C@@H]3O)[C@@H](O)[C@H](O)[C@@H]2O)[C@@H]1O [N, HO-SO2 -O-6Manα1(Manα1-2)-2Manα1(6-HSO3)-6Manα1-4-GluNβ1-6(D)-inositol-1,2-(cyclic)-phosphate]
Rat fat cells [1]; [3]
  EC50: 3 µM
Rat fat cells [1]; [4]
  Emax: 96%
Rat fat cells [2]; [5]
  Emax: 52%
Rat fat cells [2]; [6]
  EC50: 5 µM

## O=[PH](O)OC[C@H]1O[C@H](OC[C@H]2O[C@H](OC[C@H]3O[C@H](OC[C@H]4O[C@H](OC[C@H]5O[C@H](O[C@H]6[C@H](O)[C@@H](O)[C@H](OP(=O)(O)O)[C@H](O)[C@@H]6O)[C@@H](O)[C@@H](O)[C@@H]5O)[C@@H](O)[C@@H](O)[C@@H]4O)[C@@H](O)[C@@H](O)[C@@H]3O)[C@@H](O)[C@@H](O)[C@@H]2O)[C@@H](O)[C@@H](O)[C@@H]1O [O, HO-PO(H)O-6-Manα1-6Manα1-6Manα-1-6Manα1-6Manα1-6(L)inositol-3-phosphate]
Rat fat cells [1]; [3]
  EC50: 20 µM
Rat fat cells [1]; [4]
  Emax: 10%
Rat fat cells [2]; [5]
  Emax: 5%
Rat fat cells [2]; [6]
  EC50: 50 µM

## N[C@H]1[C@H](O[C@H]2[C@H](O)[C@@H](O)[C@H](OP(=O)(O)O)[C@H](O)[C@@H]2O)O[C@H](CO)[C@@H](O)[C@@H]1O[C@H]1O[C@H](CO[C@H]2O[C@H](CO[PH](=O)O)[C@@H](O)[C@H](O)[C@@H]2O[C@H]2O[C@H](CO[PH](=O)O)[C@@H](O)[C@H](O)[C@@H]2O)[C@@H](O)[C@H](O)[C@@H]1O [Q, HO-PO(H)O-6Manα1-2Manα1(6-PO(H)OH)-6-Manα1-3GluNβ1-6(L)inositol-3-phosphate]
Rat fat cells [1]; [3]
  EC50: 40 µM
Rat fat cells [1]; [4]
  Emax: 44%
Rat fat cells [2]; [5]
  Emax: 18%
Rat fat cells [2]; [6]
  EC50: 30 µM

## NC(=O)OC[C@H]1O[C@H](O[C@@H]2[C@@H](OC[C@H]3O[C@H](O[C@@H]4[C@@H](N)[C@H](O[C@H]5[C@H](O)[C@@H](O)[C@H](OP(=O)(O)O)[C@H](O)[C@@H]5O)O[C@H](CO)[C@H]4O)[C@@H](O)[C@@H](O)[C@@H]3O)O[C@H](COC(N)=O)[C@@H](O)[C@@H]2O)[C@@H](O[C@H]2O[C@H](CO)[C@@H](O)[C@H](O)[C@@H]2O)[C@@H](O)[C@@H]1O [R, H2 N-CO-O-6Manα1(Manα1-2)-2Manα1(6-CO-NH2)-6Manα1-3GluNβ1-6(L)inositol-3-phosphate]
Rat fat cells [1]; [3]
  EC50: 15 µM
Rat fat cells [1]; [4]
  Emax: 48%
Rat fat cells [2]; [5]
  Emax: 19%
Rat fat cells [2]; [6]
  EC50: 10 µM
